# Reference: ChEMBL document CHEMBL1137187, “Isoindolinone ureas: a novel class of KDR kinase inhibitors” (Bioorg Med Chem Lett, 2004)
# Assays:
# [1] = target: Vascular endothelial growth factor receptor 2 (Homo sapiens, UniProt P35968); test: Inhibition of Vascular endothelial growth factor receptor 2 (KDR)
# NIH3T3 = test: inhibitory activity of the Compound against NIH3T3 Cell lines; type: functional, cell-based; conditions: Mus musculus
# Vascular endothelial growth factor receptor 2, sequence (P35968 whole entry): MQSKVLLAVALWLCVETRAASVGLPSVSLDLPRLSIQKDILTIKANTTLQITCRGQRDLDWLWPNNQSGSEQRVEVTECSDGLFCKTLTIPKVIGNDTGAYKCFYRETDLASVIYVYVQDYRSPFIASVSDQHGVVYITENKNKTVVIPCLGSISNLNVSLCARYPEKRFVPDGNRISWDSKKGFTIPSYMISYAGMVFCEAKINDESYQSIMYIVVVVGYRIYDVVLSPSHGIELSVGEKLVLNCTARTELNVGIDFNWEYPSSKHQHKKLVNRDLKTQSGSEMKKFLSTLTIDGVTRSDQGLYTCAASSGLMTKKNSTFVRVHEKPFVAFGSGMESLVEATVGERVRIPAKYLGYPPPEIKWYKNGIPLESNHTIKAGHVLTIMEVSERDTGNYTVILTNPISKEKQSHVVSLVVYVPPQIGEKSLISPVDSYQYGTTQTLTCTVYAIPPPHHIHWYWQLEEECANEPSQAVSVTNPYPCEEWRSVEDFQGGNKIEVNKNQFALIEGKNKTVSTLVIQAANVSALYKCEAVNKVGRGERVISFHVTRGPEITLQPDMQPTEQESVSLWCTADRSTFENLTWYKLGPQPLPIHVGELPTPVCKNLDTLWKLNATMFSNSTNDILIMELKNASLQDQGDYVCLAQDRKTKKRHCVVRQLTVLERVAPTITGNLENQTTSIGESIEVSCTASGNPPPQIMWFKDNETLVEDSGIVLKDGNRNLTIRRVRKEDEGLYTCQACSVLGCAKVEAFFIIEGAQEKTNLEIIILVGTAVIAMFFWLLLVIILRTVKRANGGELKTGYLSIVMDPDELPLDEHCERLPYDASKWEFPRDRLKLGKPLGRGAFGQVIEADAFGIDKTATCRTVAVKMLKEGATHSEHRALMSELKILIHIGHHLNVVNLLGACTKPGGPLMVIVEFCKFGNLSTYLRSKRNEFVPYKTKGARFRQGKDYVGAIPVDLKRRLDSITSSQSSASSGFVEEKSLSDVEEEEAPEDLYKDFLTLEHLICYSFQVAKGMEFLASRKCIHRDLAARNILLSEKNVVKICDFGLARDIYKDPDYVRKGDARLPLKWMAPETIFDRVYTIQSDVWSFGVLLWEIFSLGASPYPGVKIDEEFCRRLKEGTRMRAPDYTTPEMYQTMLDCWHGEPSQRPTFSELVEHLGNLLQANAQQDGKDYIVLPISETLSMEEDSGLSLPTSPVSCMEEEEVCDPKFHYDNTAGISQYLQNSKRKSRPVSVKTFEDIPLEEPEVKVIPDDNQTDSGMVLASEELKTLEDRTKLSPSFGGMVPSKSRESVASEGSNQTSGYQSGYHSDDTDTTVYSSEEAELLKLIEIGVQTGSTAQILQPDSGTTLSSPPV
IC50 [1] [nM],Compound,IC50 (NIH3T3) [nM]
46,O=C(Nc1ccc(-c2cccc3c2CNC3=O)cc1)Nc1cccc(Cl)c1,
> 50000,Cc1cccc(NC(=O)Nc2c(C)cc(-c3cccc4c3CNC4=O)cc2C)c1,
126,COCCOc1ccc(-c2ccc(NC(=O)Nc3cccc(C)c3)cc2)c2c1C(=O)NC2,
52,Cc1cccc(NC(=O)Nc2ccc(-c3cccc4c3CNC4=O)c(F)c2)c1,
34,Cc1cccc(NC(=O)Nc2ccc(-c3cccc4c3CNC4=O)cc2C(F)(F)F)c1,
14,Cc1cccc(NC(=O)Nc2ccc(-c3ccc(N)c4c3CNC4=O)cc2)c1,
> 50000,Cc1cccc(CC(=O)Nc2ccc(-c3cccc4c3CNC4=O)cc2)c1,
1800,O=C(Nc1ccccc1)Nc1ccc(-c2cccc3c2CNC3=O)cc1,
370,N#Cc1cccc(NC(=O)Nc2ccc(-c3cccc4c3CNC4=O)cc2)c1,
29,CCc1cccc(NC(=O)Nc2ccc(-c3cccc4c3CNC4=O)cc2)c1,
> 50000,O=C(Nc1ccc(-c2cccc3c2CNC3=O)cc1)c1ccccc1,
350,Cc1cccc(NC(=O)Nc2ccc(-c3ccc(NC(=O)CN(C)C)c4c3CNC4=O)cc2)c1,
4400,Cc1ccccc1NC(=O)Nc1ccc(-c2cccc3c2CNC3=O)cc1,
83,Cc1cc(C)cc(NC(=O)Nc2ccc(-c3cccc4c3CNC4=O)cc2)c1,
39,O=C(Nc1ccc(-c2cccc3c2CNC3=O)cc1)Nc1ccc2c(c1)CCC2,
21,COc1ccc(-c2ccc(NC(=O)Nc3cccc(C)c3)cc2)c2c1C(=O)NC2,170
161,O=C(Nc1ccc(-c2cccc3c2CNC3=O)cc1)Nc1ccc(C(F)(F)F)cc1,
10,Cc1cccc(NC(=O)Nc2ccc(-c3ccc(NC(=O)c4cccnc4)c4c3CNC4=O)cc2)c1,11
> 50000,O=C1NCc2c1cccc2-c1ccc(NS(=O)(=O)c2ccccc2)cc1,
6000,CCc1cc(-c2cccc3c2CNC3=O)ccc1NC(=O)Nc1cccc(C)c1,

IC50 [1] [nM],Compound,IC50 (NIH3T3) [nM]
30,Cc1cccc(NC(=O)Nc2ccc(-c3cccc4c3CNC4=O)cc2Cl)c1,99
64,CC(=O)Nc1ccc(-c2ccc(NC(=O)Nc3cccc(C)c3)cc2)c2c1C(=O)NC2,
2100,Cc1cccc(NC(=O)Cc2ccc(-c3cccc4c3CNC4=O)cc2)c1,
9000,Cc1cccc(NC(=O)Nc2ccc(-c3cccc4c3CNC4=O)c(C(F)(F)F)c2)c1,
10000,Cc1cccc(NC(=S)Nc2ccc(-c3cccc4c3CNC4=O)cc2)c1,
470,Cc1cccc(NC(=O)Nc2ccc(-c3ccc(NC(=O)c4ccccc4)c4c3CNC4=O)cc2)c1,
770,Cc1cccc(NC(=O)Nc2ccc(-c3cccc4c3CNC4=O)c(C)c2)c1,
570,COc1cccc(NC(=O)Nc2ccc(-c3cccc4c3CNC4=O)cc2)c1,
23,O=C(Nc1ccc(-c2cccc3c2CNC3=O)cc1)Nc1cc(C(F)(F)F)ccc1F,150
,Cc1cccc(NC(=O)Nc2ccc(-c3cccc4c3CNC4=O)cc2)c1,270
18,CC(C)OCc1ccc2c(c1)c1c3c(c4c(c1n2CCCCC(=O)N(C)C)Cc1ccccc1-4)C(=O)NC3,
44,Cc1cccc(NC(=O)Nc2ccc(-c3cccc4c3CNC4=O)cc2F)c1,
> 50,COc1cc(-c2nn([C@H]3CC[C@H](N4CCN(C)CC4)CC3)c3ncnc(N)c23)ccc1NC(=O)c1ccccc1,
520,O=C(Nc1ccc(-c2cccc3c2CNC3=O)cc1)Nc1cccc(F)c1,
1100,Cc1cccc(NC(=O)N(C)c2ccc(-c3cccc4c3CNC4=O)cc2)c1,
71,Cc1cccc(NC(=O)Nc2ccc(-c3cccc4c3CNC4=O)c(Cl)c2)c1,
430,Cc1ccc(NC(=O)Nc2ccc(-c3cccc4c3CNC4=O)cc2)cc1,
19000,Cc1cccc(N(C)C(=O)Nc2ccc(-c3cccc4c3CNC4=O)cc2)c1,
7,O=C(Nc1ccc(-c2cccc3c2CNC3=O)cc1)Nc1cccc(C(F)(F)F)c1,65
,Cc1cccc(NC(=O)Nc2ccc(-c3cccc4c3CNC4=O)cc2C)c1,68
